This is an account of results in patent publication US10842793B2, “Inhibitors of the unconventional secretion of fibroblast growth factor 2 (FGF2) by tumor cells and uses thereof” (Universität Heidelberg, priority 2016, dated 2020).

The experiment addresses T1, His-FGF2/GST-NΔ173 Tec (Homo sapiens, UniProt P42680).
T1 construct: made in house; host or cells: Tec: SF9 insect cells (baculovirus); FGF2: E. coli
Put plainly: Alpha protein-protein interaction assay, FGF2 binding to Tec kinase. The following applies: dose-response, ± SEM, four independent experiments. How it is done:
Alpha® protein-protein interaction assays with His-tagged FGF2 (125 nM) and GST-NΔ173 Tec (31.25 nM) (blue spheres) as well as His-tagged MBP-CARP (20 nM) and GST-titin (20 nM) (red squares) were conducted as described in the legend of FIG. 3 and in Experimental Procedures. Additionally, as a technical control, a single fusion protein containing both a GST- and a His-tag was used (20 nM; black triangles). Dose response curves were recorded with the three active compounds (#6, #14 and #21) as well as the two control compounds (#18 and #19) (FIG. 4). For each compound four independent experiments (each of which was conducted in three technical replicates) were performed. Data points were fitted using the non-linear regression function log (inhibitor) vs. response—variable slope (four parameters). Data were evaluated using GraphPad Prism (v5 for Mac OS X). Standard deviations are shown.
A Protein-Protein Interaction Assay Designed to Screen Small Molecule Libraries for Compounds Inhibiting FGF2 Binding to Tec Kinase (Alphascreen® Assay)
To quantify the interaction of FGF2 with Tec kinase under screening conditions, an assay was established based upon Alpha® technology. Briefly, this methodology is based on a pair of proteins of interest that bind to Alpha® donor and acceptor beads, respectively. Upon excitation of donor beads at 680 nm, singlet oxygen species are produced that can diffuse within a range of 200 nm. […] This in turn causes emission of light with a wave length of 520 nm that is detected as the Alpha® signal.
The optimal concentrations of His-tagged FGF2 and GST-tagged NΔ173 Tec in the Alphascreen were determinate in a cross-titration experiment (not shown) to be 31.25 nM and 62.5 nM, respectively. […] All Alpha® assays were carried out in white low volume 384-well plates (#6008280, ProxiPlate™) and read in an EnVision plate reader (Perkin Elmer). […]
AlphaScreen experiments were performed as described above. […] Following 60 min of incubation, Alpha® signals were recorded using an EnVision™ plate reader (PerkinElmer). […]

T1 sequence (P42680 174-631 limits assumed, stated change not applied): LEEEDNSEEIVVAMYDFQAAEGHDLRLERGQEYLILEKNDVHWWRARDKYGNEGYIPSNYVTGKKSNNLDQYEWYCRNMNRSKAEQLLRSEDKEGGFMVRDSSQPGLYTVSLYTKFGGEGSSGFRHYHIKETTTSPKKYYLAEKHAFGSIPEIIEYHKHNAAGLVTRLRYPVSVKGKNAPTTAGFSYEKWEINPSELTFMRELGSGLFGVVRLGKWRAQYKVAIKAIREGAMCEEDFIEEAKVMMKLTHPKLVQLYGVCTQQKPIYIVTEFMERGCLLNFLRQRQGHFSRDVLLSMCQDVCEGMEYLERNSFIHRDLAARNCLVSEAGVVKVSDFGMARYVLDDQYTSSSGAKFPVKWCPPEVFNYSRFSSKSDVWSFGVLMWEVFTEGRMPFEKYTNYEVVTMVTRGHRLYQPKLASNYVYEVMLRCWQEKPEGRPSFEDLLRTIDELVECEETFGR

The IC50 is the concentration that gives 50% inhibition. `COC(=O)c1c(C)[nH]c(C(=O)OCc2cc(=O)n3c(C)cccc3n2)c1C` [compound #6] gave an IC50 of 8.9 µM. That is a single-digit micromolar value.

`CC(=O)c1c(C)[nH]c(C(=O)OCc2cc(=O)n3cc(Br)ccc3n2)c1C` [compound #14] had an IC50 of 7 µM.

In the case of `CC(=O)c1c(C)[nH]c(C(=O)CSc2nc3cc(Cl)cnc3[nH]2)c1C` [compound #21], the IC50 was 11.7 µM. Compared with the last compound, the IC50 is about 1.7-fold higher.
